In ChEMBL document CHEMBL3526156, “Bioactivation of the cancer chemopreventive agent tamoxifen to quinone methides by cytochrome P4502B6 and identification of the modified residue on the apoprotein” (Drug Metab Dispos, 2012):
One block for each molecule: values may come before it.

Key:
Format in all cases: ADME
Cytochrome P450 2B6 [1] = biological target: T1, Cytochrome P450 2B6 (Homo sapiens, UniProt P20813); experiment: Inactivation of CYP2B6 (unknown origin) expressed in Escherichia coli C41 DE3 cells assessed as modified apo-P450 2B6 adduct formation at 60 uM after 10 mins by ESI-LC-MS analysis in presence of NADPH
T1 sequence (P20813 whole entry): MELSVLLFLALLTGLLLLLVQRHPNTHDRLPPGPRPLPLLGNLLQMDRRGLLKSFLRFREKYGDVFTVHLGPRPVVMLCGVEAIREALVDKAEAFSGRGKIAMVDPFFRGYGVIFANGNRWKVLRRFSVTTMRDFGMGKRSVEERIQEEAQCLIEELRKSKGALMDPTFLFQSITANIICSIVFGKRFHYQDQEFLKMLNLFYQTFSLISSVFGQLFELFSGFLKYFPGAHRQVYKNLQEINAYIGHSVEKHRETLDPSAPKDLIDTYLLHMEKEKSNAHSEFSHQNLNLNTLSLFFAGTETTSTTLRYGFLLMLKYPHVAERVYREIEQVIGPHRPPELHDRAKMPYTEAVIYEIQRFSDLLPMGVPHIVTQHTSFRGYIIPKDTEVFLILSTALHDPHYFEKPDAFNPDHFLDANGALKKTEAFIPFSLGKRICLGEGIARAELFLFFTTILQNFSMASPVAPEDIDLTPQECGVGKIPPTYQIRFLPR

Cytochrome P450 2B6 [2] = biological target: T1, Cytochrome P450 2B6; experiment: Inactivation of CYP2B6 (unknown origin) expressed in Escherichia coli C41 DE3 cells assessed as modified apo-P450 2B6 adduct formation at 60 uM by ESI-LC-MS analysis in presence of NADPH and GSHEE
Cytochrome P450 2B6 [3] = biological target: T1, Cytochrome P450 2B6; experiment: Activity at CYP2B6 (unknown origin) expressed Escherichia coli C41 DE3 cells assessed as compound formation by measuring retention time treated with tamoxifen at 60 uM by LC-MS/MS analysis
Cytochrome P450 2B6 [4] = biological target: T1, Cytochrome P450 2B6; experiment: Activity at CYP2B6 (unknown origin) expressed Escherichia coli C41 DE3 cells assessed as compound formation by measuring retention time treated with 4-hydroxytamoxifen at 90 uM by LC-MS/MS analysis
[5] = Drug metabolism in human liver microsomes assessed as compound formation by measuring retention time at 90 uM by LC-MS/MS analysis
Cytochrome P450 2B6 [6] = biological target: T1, Cytochrome P450 2B6; experiment: Activity at CYP2B6 (unknown origin) expressed Escherichia coli C41 DE3 cells assessed as enzyme-mediated 4-hydroxytamoxifen quinone methide metabolite formation by measuring reactive metabolite adduct with GSHEE at 90 uM by LC-MS/MS analysis

Activity (Cytochrome P450 2B6 [1]): Active
Activity (Cytochrome P450 2B6 [2]): Active
Compound: CC/C(=C(\c1ccccc1)c1ccc(OCCN(C)C)cc1)c1ccccc1 [TAMOXIFEN]

Retention_time (Cytochrome P450 2B6 [3]): 18.3 min
Retention_time (Cytochrome P450 2B6 [4]): 16.9 min
Retention_time [5]: 16.6 min
Compound: C/C=C(/C(=C1C=CC(=O)C=C1)c1ccc(OCCN(C)C)cc1)c1ccccc1

Compound: CCC(=C(c1ccc(O)cc1)c1ccc(OCCN(C)C)cc1)c1ccccc1
Retention time (Cytochrome P450 2B6 [6]): 16.9 min
